These are literature values, as cited in publication PMC8453943 (Clinical Pharmacology in Drug Development, 2021).

The series deals with EGFR. The conditions noted are these: NSCLC with EGFR exon 20 insertion mutations; cited from earlier work.

Regarding `C#Cc1cccc(Nc2ncnc3cc(OCCOC)c(OCCOC)cc23)c1` [erlotinib], the Median progression-free survival entry was “≈ 2 months”.
As to `C=CC(=O)Nc1cc(Nc2nccc(-c3cn(C)c4ccccc34)n2)c(OC)cc1N(C)CCN(C)C` [osimertinib], the Median progression-free survival result is reported as “≈ 2 months”.
